Source: patent US20220160703A1, “TUMOR-SELECTIVE COMBINATION THERAPY” (The Board of Regents of The University of Texas System, priority 2019, published 2022)

Tested on: MC38 tumor
Experiment: MC38 subcutaneous syngeneic tumor model
Type: in vivo, mice
Protocol: (FIG. 1A) NQO1 positive tumor cell lines MC38, TC-1 and Ag104Ld and NQO1 negative cell lines Panc02 and B16 grown in 48-well plates were treated with β-lap (0-8 μM) for a 3 hr followed by washing and replacing medium. Cell viability was determined by Sulforhodamine B (SRB) Assay 4 days later. […] (FIG. 1C) MC38 cells with CRISPR-based NQO1 Knockout (MC38 NQO1KO #5) planted in 96-well plates were exposed to β-lap for 3 hr and cell survival was assessed 48 hr later. […] (FIG. 1E) MC38 cells were exposed to a lethal dose of β-lap (4 μM) for indicated times, then stained with 7-AAD and Annexin V followed by flow cytometry analysis. […] (FIG. 1H) MC38 and B16 NQO1 #1 cells were exposed to β-lap for a 3 hr. Catalase (1000 U/ml) was added and cell survival was assessed 48 hr later. (FIG. 1I) C57BL/6 mice (n=5/group) were transplanted with MC38 cells and treated with β-lap (0.03 mg, 0.1 mg or 0.3 mg, intratumorally; or 25 mg/kg, i.v.) every other day for four times. (FIG. 1J) C57BL/6 mice were transplanted with MC38 cells (NQO1 WT or KO, n=5/group) and treated with β-lap (0.3 mg, i.t.) every other day for four times. Tumor growth was monitored twice a week.
(FIG. 2A) MC38 cells were subcutaneously transplanted into C57BL/6 WT (n=5-6/group) and Rag1 KO mice (n=5/group), respectively. Tumor bearing mice were treated with β-lap (0.3 mg, i.t.) every other day for four times. […] (FIG. 2B) MC38 tumor bearing C57BL/6 mice (n=5/group) were treated with β-lap (0.3 mg, i.t.) every other day for four times. For CD8^+ T cell depletion, 200 μg of anti-CD8 antibodies were intraperitoneally injected four times at three days interval during the treatment. (FIG. 2C) TC-1 tumor bearing C57BL/6 mice (n=4-5/group) were treated with β-lap (0.1 mg, i.t.) for four times with or without anti-CD8 antibodies. […] (FIG. 2E) 2×10^6 A549 cells were subcutaneously injected into C57BL/6 Rag1^−/− mice (n=5/group for vehicle and β-lap; n=7/group for vehicle+OT-1 and β-lap+OT-1). 30 days later, the mice were i.v. adoptively transfected with 2×10^6 lymph node cells from OT-1 transgenic mice. On the following day, tumor-bearing mice were intratumorally treated with β-lap (0.2 mg) every other day for 4 times. (FIG. 2F) A549 cells were subcutaneously injected into NSG-SGM3 (n=5/group) or NSG-SGM3 harboring human CD34^+ hematopoietic stem cells (n=5/group for Hu-NSG vehicle; n=6/group for Hu-NSG β-lap). Tumor bearing mice were treated with β-lap (0.2 mg, i.t.) every other day for four times. Tumor growth was measured twice a week.
(FIG. 6A) Treatment schema for local β-lap treatment based combinative therapy in FIG. 6B and FIG. 6C. (FIGS. 6B-C) MC38 tumor cells were s.c. inoculated into the flank of C57BL/6 mice (n=5/group). Mice bearing small tumor (about 50 mm^3, B) or advanced tumor (about 150-200 mm^3, FIG. 6C) were locally treated with β-lap (0.3 mg, i.t.) for four times with or without anti-PD-L1 based checkpoint blockage.

CC1(C)CCC2=C(O1)c1ccccc1C(=O)C2=O [β-lap, β-lapachone]
re-challenge of cured mice (3×10^6 MC38 cells, 30 days after complete rejection): rejected the re-challenged tumors | therapeutic activity in immune-deficient mice (Rag1 KO C57BL/6 mice, 0.3 mg i.t. four times): lost therapeutic activity | TGI (large established tumors (about 150-200 mm^3), β-lap 15 mg/kg i.t. four times, anti-PD-L1 100 μg i.p. three times): 59.36% | Tumor growth inhibition rate (TGI) (local (intratumoral) β-lap 1.5 mg/kg mg, every other day 4 doses): 11.8% | Tumor growth inhibition rate (TGI) (local (intratumoral) β-lap 5 mg/kg, every other day 4 doses): 69.4% | Tumor growth inhibition rate (TGI) (local (intratumoral) β-lap 15 mg/kg mg, every other day 4 doses): 89.3% | Tumor growth inhibition rate (TGI) (systemic β-lap 25 mg/kg i.v., every other day four times): 62.5% | antitumor effect with CD8+ T cell depletion (β-lap 0.3 mg i.t. + anti-CD8 200 μg): abolished β-lap's antitumor effect | response with macrophage depletion (β-lap 0.3 mg i.t. + anti-CSF1R Ab 100 μg i.t.): did not affect the response | therapeutic effect with type I IFN blockade (β-lap 0.3 mg i.t. + anti-IFNAR1 150 μg i.t.): significantly diminished the therapeutic effect | therapeutic effect in Batf3−/− mice (β-lap 0.3 mg i.t. four times): no therapeutic effect | tumor regression in Myd88−/− mice (β-lap 0.3 mg i.t. four times): disappeared
